One data set relates to CCRF-CEM. In words: NCI60 screen cytotoxicity. The data set is classed as cell-based. To be noted: Homo sapiens, Leukemia, read-out: Compound B1 EC50.
Another data set concerns NCI-H460. Put plainly: NCI60 screen cytotoxicity. The data set is classed as cell-based. To be noted: Homo sapiens, Lung cancer, read-out: Compound B1 EC50.
The test system of another data set is HCT-15. Put plainly: NCI60 screen cytotoxicity. The data set is classed as cell-based. To be noted: Homo sapiens, Colon cancer, read-out: Compound B1 EC50.
The next data set concerns LOX IMVI. In words: NCI60 screen cytotoxicity. The data set is classed as cell-based. To be noted: Homo sapiens, Melanoma, read-out: Compound B1 EC50.
The test system of another data set is COLO-205. Put plainly: NCI60 screen cytotoxicity. The data set is classed as cell-based. To be noted: Homo sapiens, Colon cancer, read-out: Compound B1 EC50.
Another data set relates to MM1.S. Put plainly: Cell viability, ATPlite 1-step, MM cell lines. It counts as cell-based. To be noted: Homo sapiens; MM1.S MM cell line; 48 hours; read-out: Compound EC50. The protocol: Cell Viability. The assay was performed only when cell viability was ≥90%. Cells were seeded in 96-well white clear bottom plates at concentration of 100,000 cells/mL and treated with serially diluted compounds or vehicle (DMSO) control in triplicates for 48 hours (h). Cell viability was determined using the ATPlite 1-step assay system (PerkinElmer). The method was based on the production of light caused by the reaction of ATP, which was a marker for cell viability. […] were added to the plates which were read in a plate reader for luminescence. The emitted light is proportional to the ATP concentration. Viability was calculated as the percent of viable cells from control vehicle-treated cells. EC50 was calculated using Prism software.
Potency of compounds were assessed by viability assay.
On the technique in general: ATP-based viability assays read luminescence as a measure of living cells.

The test system of a further data set is MDA-MB-435. Put plainly: NCI60 screen cytotoxicity. The data set is classed as cell-based. The conditions noted are these: Homo sapiens, Melanoma, read-out: Compound B1 EC50.
Another data set deals with HCC-2998. Put plainly: NCI60 screen cytotoxicity. The conditions noted are these: Homo sapiens, Colon cancer, read-out: Compound B1 EC50. It counts as cell-based.
For a further data set, the system named is SF-268. Put plainly: NCI60 screen cytotoxicity. It counts as cell-based. The conditions noted are these: Homo sapiens, CNS, read-out: Compound B1 EC50.
A further data set deals with EKVX. In words: NCI60 screen cytotoxicity. The data set is classed as cell-based. The conditions noted are these: Homo sapiens, Lung cancer, read-out: Compound B1 EC50.
A further data set has as its system ACHN. In words: NCI60 screen cytotoxicity. It counts as cell-based. To be noted: Homo sapiens, Renal cancer, read-out: Compound B1 EC50.
The test system of another data set is PC-3. Put plainly: NCI60 screen cytotoxicity. To be noted: Homo sapiens, Prostate cancer, read-out: Compound B1 EC50. It counts as cell-based.
The next data set concerns SW-620. In words: NCI60 screen cytotoxicity. It counts as cell-based. To be noted: Homo sapiens, Colon cancer, read-out: Compound B1 EC50.
For a further data set, the system named is SK-MEL-28. Put plainly: NCI60 screen cytotoxicity. It counts as cell-based. The conditions noted are these: Homo sapiens, Melanoma, read-out: Compound B1 EC50.
A further data set concerns MOLT-4. Put plainly: NCI60 screen cytotoxicity. To be noted: Homo sapiens, Leukemia, read-out: Compound B1 EC50. The data set is classed as cell-based.
The next data set deals with SW620 xenograft. Put plainly: SW620 colorectal flank xenograft in nude mice. It counts as in vivo. The conditions noted are these: 8 mg/kg IV, TIW for 21 days. The text has this: FIG. 6A-6D show the evaluated in-vivo efficacy of Compound AA in a colorectal mouse flank xenograft models (HCT116, SW620). […] HCT-116 or SW620 cells (5×10^6 cells/mouse) were implanted in the rear flank of mail mice (6 weeks of age at the time of tumor implantation). On Day 20-23, mice were randomized for equivalent distribution of tumor volumes to treatment groups (n=5/group) and treated IV with vehicle, Compound AA (FIG. 6A, FIG. 6B) TIW for 21 days. Data are presented as mean tumor volume±SD. Body weight % changes in treated animals observed at end point (FIG. 6C, FIG. 6D). Animal xenograft models. MM1.S, HCT-116, SW620 cell lines were purchased from ATCC and used for xenograft model. The cells were cultured in RPMI medium (Sigma-Aldrich) supplemented with 10% fetal bovine serum (FBS) and divided for up to 5 passages. Shortly prior to injection, cell suspension was mixed with Matrigel at 1:[…]) and injected subcutaneously to the rear flank area of male nude athymic 6 weeks old mice to obtain administration of 5×10^6 cells/animal. On day 20-23, when tumor volume reached 100-150 mm^3, mice were randomized for equivalent distribution of tumor volumes to treatment groups (n=5/group) and treated via intravenous injection.

Where only a bound is given, the exact number is not on record here.

This is an account of results in patent US20200399262A1, “COMPOUNDS FOR INHIBITING PROTEIN DEGRADATION AND METHODS OF USE THEREOF IN THE TREATMENT OF CANCER” (PI Therapeutics Ltd, priority 2018, published 2020).

As usually defined, the EC50 is the concentration at which the effect is half-maximal. As to `CN(C)CC(=O)NCC(=O)N1C/C(=C\c2ccc(C#N)cc2)C(=O)/C(=C/c2ccc(C#N)cc2)C1` [Compound B1], the EC50 was less than 300 nM in the data set on CCRF-CEM; less than 300 nM with NCI-H460; less than 300 nM in the data set with HCT-15; less than 300 nM in the data set on LOX IMVI; 300 to 1000 nM with COLO-205; less than 300 nM in the data set with MM1.S. In addition, the EC50 in the data set with MDA-MB-435 was less than 300 nM; in the data set on HCC-2998, less than 300 nM; with SF-268 it was less than 300 nM; in the data set with EKVX, 300 to 1000 nM; in the data set with ACHN it was less than 300 nM; with PC-3, less than 300 nM. Moreover, the EC50 was less than 300 nM in the data set with SW-620, 300 to 1000 nM in the data set on SK-MEL-28 and less than 300 nM in the data set on MOLT-4.

Regarding `CN(C)CCCS(=O)(=O)N1C/C(=C\c2ccc(C#N)cc2)C(=O)/C(=C/c2ccc(C#N)cc2)C1` [Compound AA], in the data set with SW620 xenograft, the Animal body weight entry was “not considerably affected” and the “tumor growth compared to vehicle control” value is given as “significantly inhibited tumor growth”.
